Reference: US5013722A, “Cholecystokinin analogs for controlling appetite” (Hoffmann-LaRoche Inc., priority 1989, dated 1991)
Where a SMILES comes first, the peptide text is derived from it. [ ]: non-standard residue; d: D form. Thr(SO3H) = C[C@@H](OS(=O)(=O)O)[C@H](N)C(=O)O; sY = N[C@@H](Cc1ccc(OS(=O)(=O)O)cc1)C(=O)O; NMeF = CN[C@@H](Cc1ccccc1)C(=O)O

Experiments:
[1] = target: T1, receptors in rat pancreas (3H-CCK-8-(SO3 H) binding) (Rattus norvegicus, UniProt P30551); test: In vitro receptor binding assay, rat pancreas homogenate, 3H-CCK-8-(SO3H) radioligand; conditions: 0.15 nM radioligand, 30 min, 25° C.; read-out: Rat Pancreas IC50 (inhibition of specific 3H-CCK-8-(SO3H) binding)
T1 construct: receptors in homogenized preparations of rat pancreatic cells and bovine striata; from tissue; host or cells: rat pancreas homogenate (48,000 x g pellet)
T1 sequence (P30551 1-444): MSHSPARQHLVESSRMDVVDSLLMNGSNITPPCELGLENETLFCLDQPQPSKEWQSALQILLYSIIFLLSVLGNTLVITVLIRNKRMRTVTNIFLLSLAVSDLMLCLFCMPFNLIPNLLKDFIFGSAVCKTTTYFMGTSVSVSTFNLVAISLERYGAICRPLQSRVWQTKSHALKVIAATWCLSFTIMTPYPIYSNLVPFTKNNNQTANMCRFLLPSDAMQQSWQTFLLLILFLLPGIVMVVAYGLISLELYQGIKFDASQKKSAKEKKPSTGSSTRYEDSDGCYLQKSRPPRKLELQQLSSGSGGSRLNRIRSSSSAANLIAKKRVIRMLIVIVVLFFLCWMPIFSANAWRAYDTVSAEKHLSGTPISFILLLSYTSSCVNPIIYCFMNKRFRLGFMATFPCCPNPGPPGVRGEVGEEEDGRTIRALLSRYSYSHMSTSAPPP
Experimental: This strategy was utilized to minimize central nervous system side effects by identifying peptides with peripheral receptor selectivity. […] The tissue was homogenized 2 x for approx. 15 sec. at 0° C. using a Polytron homogenizer at a setting of 6. The tissue was isolated by centrifugation at 48,000 x g for 10 min. at 0° C. […] Samples were incubated for 30 min. at 25° C. and the incubation terminated by pouring the mixture onto a pre-wet Whatman GF/B filter on a Sandbeck Vacuum Filtration Manifold. The incubation tubes were washed with 2×3 ml of ice-cold HEPES Buffer #2 and the wash filtered through the GF/B filter. The filter was air dried for 10 min. and then placed in a scintillation vial with 12 ml of Beckman HP/b Ready-Solv scintillation cocktail. The vials were shaken for 2 hours and then counted using a Beckman Model 7800 liquid scintillation spectrometer.

[2] = target: T2, receptors in bovine striatum (3H-CCK-8-(SO3 H) binding, central receptor) (Bos taurus, UniProt P79266); test: In vitro receptor binding assay, bovine striatum homogenate, 3H-CCK-8-(SO3H) radioligand; conditions: 0.15 nM radioligand, 30 min, 25° C.; read-out: Bovine Striatum IC50 (inhibition of specific 3H-CCK-8-(SO3H) binding)
T2 construct: receptors in homogenized preparations of rat pancreatic cells and bovine striata; from tissue; host or cells: bovine striatum homogenate (48,000 x g pellet)
T2 sequence (P79266 1-454): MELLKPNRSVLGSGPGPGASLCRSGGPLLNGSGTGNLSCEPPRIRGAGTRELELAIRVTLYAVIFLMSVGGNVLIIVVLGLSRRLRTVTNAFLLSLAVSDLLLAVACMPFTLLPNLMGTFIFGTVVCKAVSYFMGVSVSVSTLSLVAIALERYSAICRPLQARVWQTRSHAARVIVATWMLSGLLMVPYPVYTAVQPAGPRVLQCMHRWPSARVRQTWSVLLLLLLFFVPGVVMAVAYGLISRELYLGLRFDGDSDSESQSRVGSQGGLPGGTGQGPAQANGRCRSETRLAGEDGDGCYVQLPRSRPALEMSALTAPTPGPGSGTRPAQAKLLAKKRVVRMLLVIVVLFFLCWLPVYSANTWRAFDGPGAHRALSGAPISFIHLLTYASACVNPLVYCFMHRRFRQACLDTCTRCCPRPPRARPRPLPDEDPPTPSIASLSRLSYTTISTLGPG
Experimental: Frozen bovine striatum (approx. 5 g) and fresh rat pancreas (approx. 5 g) cleaned of fat and extraneous tissue were homogenized in HEPES buffer #1 (10 mM HEPES+130 mM NaCl+5 mM MgCl2. pH 7.4) using 35 parts buffer per 1 part tissue on a wet weight/volume basis (approx. 175 ml). The tissue was homogenized 2 x for approx. 15 sec. at 0° C. using a Polytron homogenizer at a setting of 6. The tissue was isolated by centrifugation at 48,000 x g for 10 min. at 0° C. The resulting tissue pellet was resuspended in HEPES buffer #2 (10 mM HEPES+130 mM NaCl+5 mM MgCl2 +1 mg/L phenylmethanesulfonyl fluoride (PMSF)+200 mg/L Bacitracin): 1 part striatal tissue (original wet weight) per 80 parts buffer and 1 part pancreas tissue (original wet weight) per 70 parts buffer.
Incubation was initiated by combining various concentrations of native CCK-8 or peptides of formula I, II and III with ^3 H-CCK-8-(SO3 H) (final conc.=0.15 nM) and tissue homogenate (striatum 0.26 mg protein in 2 ml final volume; pancreas 0.165 mg protein in 1 ml final volume). Samples were incubated for 30 min. at 25° C. and the incubation terminated by pouring the mixture onto a pre-wet Whatman GF/B filter on a Sandbeck Vacuum Filtration Manifold. The incubation tubes were washed with 2×3 ml of ice-cold HEPES Buffer #2 and the wash filtered through the GF/B filter. The filter was air dried for 10 min. and then placed in a scintillation vial with 12 ml of Beckman HP/b Ready-Solv scintillation cocktail. The vials were shaken for 2 hours and then counted using a Beckman Model 7800 liquid scintillation spectrometer. Non-specific binding was determined in the presence of 1 micromole native CCK-8 and subtracted from all samples to determine specific binding. The concentration of ^3 peptide necessary to inhibit 50% of total specific H-CCK-8-(SO3 H) binding (IC50 value) was determined by log-probit analysis.

[3] = target: T3, Rat kidney metalloendopeptidase (Rattus norvegicus, UniProt P07861); test: Degradation by rat kidney metalloendopeptidase (HPLC); assay type: in vitro ADME; conditions: for % Degradation by Height: 37° C., pH 7.6
T3 construct: from tissue; host or cells: rat kidney
T3 sequence (P07861 1-750): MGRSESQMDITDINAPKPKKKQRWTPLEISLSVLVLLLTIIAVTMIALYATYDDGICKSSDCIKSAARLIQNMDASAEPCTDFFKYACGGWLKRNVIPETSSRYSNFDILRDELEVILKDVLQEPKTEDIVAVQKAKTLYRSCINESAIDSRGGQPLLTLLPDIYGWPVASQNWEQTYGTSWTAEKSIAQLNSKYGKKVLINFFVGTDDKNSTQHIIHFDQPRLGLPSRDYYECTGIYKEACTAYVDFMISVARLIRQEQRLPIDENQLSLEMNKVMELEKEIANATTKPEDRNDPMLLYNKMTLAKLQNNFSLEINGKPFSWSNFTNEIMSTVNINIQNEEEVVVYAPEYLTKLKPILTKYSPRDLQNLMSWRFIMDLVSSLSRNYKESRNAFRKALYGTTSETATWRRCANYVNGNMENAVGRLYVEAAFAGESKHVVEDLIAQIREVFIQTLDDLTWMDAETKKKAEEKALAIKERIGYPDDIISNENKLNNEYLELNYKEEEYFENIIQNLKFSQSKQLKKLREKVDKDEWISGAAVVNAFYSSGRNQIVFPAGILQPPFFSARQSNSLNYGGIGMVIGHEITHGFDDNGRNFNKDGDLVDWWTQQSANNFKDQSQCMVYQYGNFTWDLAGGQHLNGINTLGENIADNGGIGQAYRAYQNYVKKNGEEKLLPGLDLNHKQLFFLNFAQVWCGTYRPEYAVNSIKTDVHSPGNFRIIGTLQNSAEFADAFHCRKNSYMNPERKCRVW
Experimental: Rat kidney metalloendopeptidase (0.01 μg) and 5 nmol of peptide were incubated in 2 μmol tris-HCl buffer (pH 7.6) and at 37° C. for varying periods of time. The degradation of the peptide was monitored by analytical HPLC on a 5 micron Adsorbosphere-ODS column with a 0-50% CH3 CN gradient in 0.1N potassium phosphate, pH 3.0, with UV detection at 210 nm. Rates are based on presumed production of Asp-Tyr(SO3 H)-Met-Gly for CCK-8 and the presumed production of Ac-Tyr(SO3 H)-Met-Gly for Example 2 and 3.

IC50 [1]: 2.2 nM
IC50 [2]: 100 to 500 nM
% Degradation by Height ([3]; incubation 0 min): 0%
% Degradation by Height ([3]; incubation 60 min): 19.4%
% Degradation by Height ([3]; incubation 120 min): 30.3%
No. of Peaks (degradation products) ([3]; incubation 240 min): 2
% Degradation by Height ([3]; incubation 240 min): 56.4%
Structure (SMILES): CSCC[C@H](NC(=O)[C@H](Cc1ccc(OS(=O)(=O)O)cc1)NC(C)=O)C(=O)NCC(=O)N[C@@H](Cc1c[nH]c2ccccc12)C(=O)N[C@@H](CCSC)C(=O)N[C@H](C(=O)N(C)[C@@H](Cc1ccccc1)C(N)=O)[C@@H](C)OS(=O)(=O)O [Example 2, Ac-Tyr(SO3 H)-Met-Gly-Trp-Met-Thr(SO3 H)-N-methyl-Phe-NH2] (Ac-[sY]MGWM[Thr(SO3H)][NMeF]-NH2)
